≈ marks a conversion by molar mass, not a printed value. Where two headings read alike, the source gives them in different places.
Key:
[1] = test system: L. amazonensis promastigotes; assay: L. amazonensis promastigote dose response assay (alamarBlue/resazurin); assay type: cell-based; conditions: 44 hrs + 4 hrs alamarBlue/resazurin, 26° C., read-out: EC50 (L. amaz)/μM
L. major promastigotes = assay: L. major promastigote dose response assay (alamarBlue/resazurin); assay type: cell-based; conditions: for EC50: 44 hrs + 4 hrs alamarBlue/resazurin, 26° C.
Experimental: Using a standard alamarBlue™ assay, activity and selectivity were assessed using L. major promastigotes and HepG2 cells, respectively.
All parasite and human cell cultures were grown and manipulated following biosafety level 2 instructions under sterile conditions. L. major FV1, L. amazonensis (MHOM/Br/75/JOSEFA), L. donovani BOB (derived from MHOM/SD/62/1S-CL2D), T. brucei (90-13, 427 strain) and T. cruzi (Dm28c) were used throughout.
All steps were carried out under sterile conditions. Frozen stocks of the relevant Leishmania promastigote species were thawed rapidly and added to Schneider's media. Promastigotes were grown at 26° C. in Nunc EasYFlask 25 cm^2 Nunclon Delta Surface (ThermoScientific) and frozen stocks were prepared on low passage cultures (p2-4) by pelleting the cells by centrifugation and resuspending in Schneider's media with 10% DMSO. The cultures were aliquoted into cryovials (Starlab) and cooled slowly to −150° C. for long term storage.
All steps were carried out under sterile conditions. […] Cycloheximide or amphotericin B were used as positive controls and 2% DMSO was used as a negative control. alamarBlue® (ThermoFisher scientific) or resazurin solution was added to each well and incubated for a further 4 hrs at 26° C. Cell-viability was determined using a BioTek™ FLx800 microplate reader with Gen5® 1.08 data analysis software (BioTek) by monitoring fluorescence emission (λex 560/λem 590 nm). Dose response curves were fitted using sigmoidal regression analysis (GraphPad Prism 8 software) and used to calculate EC50 values.

Kinetic solubility = conditions: PBS, aqueous buffer, kinetic from dmso stock
Text: All chemicals and solvents were sourced from commercial suppliers. Buffers were made up using purified water from a MilliQ® water purification system. Biorelevant buffers (FESSIF, FASSIF and FASSGF) were purchased from Biorelevant and made up according to manufacturer's instructions. 15% FBS (heat inactivated, South American origin, ThermoFisher scientific) in PBS (Fisher Scientific) was filter sterilised (0.22 μm Fisherbrand™ Sterile PES Syringe Filter, Fisher Scientific) before use. Sodium taurocholate was purchased from Merck.
λmax was determined for each compound from the UV-Vis absorption spectrum of a 200 LIM compound solution in buffer of interest using a Varian Cary® 100 UV-Vis Spectrophotometer. A calibration curve of λmax VS concentration was obtained by serial dilution of compound from 200 μM in the buffer of interest, correcting for background buffer absorption. For each sample, a DMSO solution of compound was incubated in buffer of interest (<5% DMSO) for 2 hrs at RT. The solution was filtered (0.22 μm Fisherbrand™ Sterile PES Syringe Filter, Fisher Scientific) or centrifuged (14,500 rpm, 10 min) to remove undissolved debris and the supernatant was removed and diluted as required. The corrected UV absorption of the supernatant at Amax Was measured using a Varian Cary® 100 UV-Vis Spectrophotometer and compared to the calibration curve to determine compound solubility.

Compound	EC50 ([1]; Leishmania amazonensis, 48 h)	EC50 (L. major promastigotes; Leishmania major, 48 h)	EC50 (L. major promastigotes)	further results
CNC(=O)c1ccsc1NC(=O)c1cscn1 [Compound 13, N-[3-(methylcarbamoyl)thiophen-2-yl]-1′,3′-thiazole-4′-carboxamide]	93 ± 7 µM	> 100 µM		
CCOC(=O)C1=C(NC(=O)c2ccc([N+](=O)[O-])s2)CCC1 [Compound 26, Ethyl 2-(5′-nitrothiophene-2′-amido)cyclopent-1-ene-1-carboxylate]	0.72 µM	0.46 µM		
O=C(Nc1ccccc1C(=O)O)c1ccc([N+](=O)[O-])s1 [Compound 29, 2-(5′-nitrothiophene-2′-amido)benzoic acid]		46 µM		
CC(=O)c1ccccc1NC(=O)c1ccc([N+](=O)[O-])s1 [Compound 32, N-(2-acetylphenyl)-5′-nitrothiophene-2′-carboxamide]			16 µM	
CNC(=O)c1ccsc1NC(=O)c1cccc([N+](=O)[O-])c1 [Compound 18, N-methyl-2-(3′-nitrobenzamido)thiophene-3-carboxamide]	> 100 µM	> 100 µM		
CC(C)NC(=O)c1ccccc1NC(=O)c1ccc([N+](=O)[O-])s1 [Compound 38, 5′-nitro-N-{[(propan-2-yl)carbamoyl]-2-phenyl}thiophene-2′-carboxamide]			4 µM	
NC(=O)c1ccccc1CNC(=O)c1ccc([N+](=O)[O-])s1 [Compound 47, N-(2-carbamoylbenzyl)-5′-nitrothiophene-2′-carboxamide]		21 ± 3 µM		solubility at 2 h (Kinetic solubility): 179 ± 8 µM (≈ 54.7 µg/mL)
CNC(=O)c1ccsc1NC(=O)c1cccs1 [Compound 6, N-methyl-2-(thiophene-2′-amido)thiophene-3-carboxamide]	> 100 µM	> 100 µM		
CCOC(=O)C1CCCC1NC(=O)c1ccc([N+](=O)[O-])s1 (stereo not drawn) [Compound 22, anti-ethyl-2-(5′-nitrothiophene-2′-amido)cyclopentane-1-carboxylate]			10 µM	EC50 [1]: 13 µM
CNC(=O)c1ccsc1NC(=O)c1cnc(Cl)s1 [Compound 9, N-[3-(methylcarbamoyl)thiophen-2-yl]-2′-chloro-1′,3′-thiazole-5′-carboxamide]		33 ± 10 µM		
5′-bromo-N-[3-(methylcarbamoyl)thiophen-2-yl]thiophene-2′-carboxamide [Compound 7]			> 100 µM	EC50 [1]: > 100 µM
CNC(=O)c1ccsc1/N=C/c1ccc([N+](=O)[O-])s1 [Compound 50, N-methyl-2-[(E)-[(5′-nitrothiophen-2′-yl)methylidene]amino]thiophene-3-carboxamide]		0.86 ± 0.07 µM		solubility at 2 h (Kinetic solubility): 101 ± 6 µM (≈ 29.8 µg/mL)
CNC(=O)c1ccsc1N(C)C(=O)c1ccc([N+](=O)[O-])s1 [Compound 48, N-methyl-2-(N-methyl-5′-nitrothiophene-2′-amido)thiophene-3-carboxamide]		9.6 ± 0.7 µM		solubility at 2 h (Kinetic solubility): 190 ± 20 µM (≈ 61.8 µg/mL)
O=C(NC1CCCC1C(=O)O)c1ccc([N+](=O)[O-])s1 (racemic) [Compound 24, ±anti 2-(5′-nitrothiophene-2′-amido)cyclopentane-1-carboxylic acid]			> 100 µM	EC50 [1]: > 100 µM
CNC(=O)c1ccsc1NC(=O)c1ccccc1 [Compound 10, 2-benzamido-N-methylthiophene-3-carboxamide]	55 ± 5 µM	75 ± 5 µM		
COc1ccc(NC(=O)c2ccc([N+](=O)[O-])s2)cc1 [Compound 36, N-(4-methoxyphenyl)-5′-nitrothiophene-2′-carboxamide]			3.45 µM	
CN(C)C(=O)c1ccccc1NC(=O)c1ccc([N+](=O)[O-])s1 [Compound 56, N-[2-(dimethylcarbamoyl)phenyl]-5′-nitrothiophene-2′-carboxamide]	6.3 µM	17 µM		
CNC(=O)c1ccsc1NC(=O)c1ccc([N+](=O)[O-])cc1C(F)(F)F [Compound 20, N-methyl-2-[4′-nitro-2′-(trifluoromethyl)benzamido]thiophene-3-carboxamide]	38.7 µM	16.6 ± 0.2 µM		improvement in antileishmanial activity compared to 19 (L. major promastigotes; Table 2): > 3 fold
CCCCCCCCCCCCCNC(=O)c1ccccc1NC(=O)c1ccc([N+](=O)[O-])s1 [Compound 39, 5′-nitro-N-[2-(tridecylcarbamoyl)phenyl]thiophene-2′-carboxamide]			> 100 µM	

Compound	EC50 ([1]; Leishmania amazonensis, 48 h)	EC50 (L. major promastigotes; Leishmania major, 48 h)	EC50 (L. major promastigotes)	further results
CNC(=O)c1c(C)cccc1NC(=O)c1ccc([N+](=O)[O-])s1 [Compound 40, N-[3-methyl-2-(methylcarbamoyl)phenyl]-5′-nitrothiophene-2′-carboxamide]			8.5 µM	
CNC(=O)c1ccsc1NC(=O)c1ccc([N+](=O)[O-])cc1 [Compound 19, N-methyl 2-(4′-nitrobenzamido)thiophene-3-carboxamide]	> 100 µM	> 100 µM		
COc1ccccc1NC(=O)c1ccc([N+](=O)[O-])s1 [Compound 30, N-(2-methoxyphenyl)-5′-nitrothiophene-2′-carboxamide]			6.3 µM	
CNC(=O)c1cc(OC)ccc1NC(=O)c1ccc([N+](=O)[O-])s1 [Compound 41, N-[4-methoxy-2-(methylcarbamoyl)phenyl]-5′-nitrothiophene-2′-carboxamide]			16 µM	
5′-amino-N-[3-(methylcarbamoyl)thiophen-2′-yl]thiophene-2-carboxamide [Compound 8]			> 100 µM	
CNC(=O)c1ccsc1NC(=O)c1ccc2nonc2c1 [Compound 16, N-[3-(methylcarbamoyl)thiophen-2-yl]-2,1,3-benzoxadiazole-5′-carboxamide]	> 100 µM	> 100 µM		
O=C(Nc1ccccc1C(F)(F)F)c1ccc([N+](=O)[O-])s1 [Compound 31, 5′-nitro-N-[2-(trifluoromethyl)phenyl]thiophene-2′-carboxamide]			8.3 µM	EC50 [1]: 4.24 µM
O=C(N[C@H]1CCC[C@H]1C(=O)O)c1ccc([N+](=O)[O-])s1 (racemic) [Compound 23, ±syn 2-(5′-nitrothiophene-2′-amido)cyclopentane-1-carboxylic acid]			> 100 µM	EC50 [1]: 52 µM
CNC(=O)c1ccsc1NC(=O)c1ccncc1 [Compound 14, N-[3-(methylcarbamoyl)thiophen-2-yl]pyridine-4′-carboxamide]	45 ± 5 µM	82 ± 1 µM		
O=C(Nc1cccc(C(F)(F)F)c1)c1ccc([N+](=O)[O-])s1 [Compound 37, 5′-nitro-N-[3-(trifluoromethyl)phenyl]thiophene-2′-carboxamide]			3.5 µM	EC50 [1]: 2.22 µM
CNC(=O)c1cc(C)ccc1NC(=O)c1ccc([N+](=O)[O-])s1 [Compound 42, N-[4-methyl-2-(methylcarbamoyl)phenyl]-5′-nitrothiophene-2′-carboxamide]			2.7 µM	
O=c1oc(-c2ccc([N+](=O)[O-])s2)nc2ccccc12 [Compound 57, 2-(5′-nitrothiophen-2′-yl)-4H-3,1-benzoxazin-4-one]		38 µM		
CNC(=O)c1ccsc1NC(=O)c1cccnc1 [Compound 15, N-[3-(methylcarbamoyl)thiophen-2-yl]pyridine-3′-carboxamide]	59 ± 2 µM	82 ± 7 µM		
CNC(=O)c1cccc(Nc2ccc([N+](=O)[O-])s2)c1 [Compound 34, N-methyl-3-[(5′-nitrothiophen-2′-yl)amino]benzamide]			3.5 µM	EC50 [1]: 0.26 µM
CNC(=O)c1ccsc1NC(=O)c1nccs1 [Compound 11, N-[3-(methylcarbamoyl)thiophen-2-yl]-1′,3′-thiazole-2′-carboxamide]	> 100 µM	78 ± 2 µM		
CCOC(=O)C1CCCC1NC(=O)c1ccc([N+](=O)[O-])s1 (stereo not drawn) [Compound 21, syn-ethyl-2-(5′-nitrothiophene-2′-amido)cyclopentane-1-carboxylate]			22 µM	EC50 [1]: 9.7 µM
CNC(=O)c1ccsc1NC(=O)c1cncs1 [Compound 12, N-[3-(methylcarbamoyl)thiophen-2-yl]-1′,3′-thiazole-5′-carboxamide]	53 ± 3 µM	88 ± 6 µM		
COc1cccc(NC(=O)c2ccc([N+](=O)[O-])s2)c1 [Compound 35, N-(3-methoxyphenyl)-5′-nitrothiophene-2′-carboxamide]			3.9 µM	
